Reference: US9610367B2, “Particle and contrast agent having the particle” (CANON KABUSHIKI KAISHA, priority 2010, dated 2017)

Assays:
Assay type in all cases: physicochemical
[1] = dissolution of ICG in chloroform with lipids without a positively charged region; conditions: lipid without positively charged region used instead of DOPE
Excerpt: Instead of DOPE of Example 1, lipids (chemical formula 8, tristearin; chemical formula 9, triolein; chemical formula 10, ethyl stearate; chemical formula 11, β-carotene; and chemical formula 12, cholesterol acetate) without a positively charged region represented by the following chemical formulas 8 to 12 were used to prepare an ICG composition in the same manner as in Example 1. However, ICG was not dissolved in chloroform in any case, and a target polymer nanoparticle containing ICG could not be obtained.

[2] = solubility of ICG in dichloromethane when phospholipid was added; conditions: phospholipid not added; inferred from absorption curve integral values
Procedure: 2 molar equivalents of a phospholipid was added to 5.5 mg of ICG. As the phospholipid, DSPC or DOPE was used. Each of these ICG-phospholipid mixtures was dissolved in 2 mL of dichloromethane. Controls were prepared by dissolving in ICG in methanol or dichloromethane. All these ICG solutions were filtered with a filter having a pore size of 0.2 μm and then diluted 500-fold with dichloromethane.

[3] = stability of aqueous dispersion: absorbance at λmax over time at 4° C. in a dark place; conditions: at 48 hours; ICG dissolved in water
Procedure: To evaluate the stability of polymer nanoparticles, aqueous dispersions of PNP1 and PNP2 were allowed to stand at 4° C. in a dark place, and changes in the absorbance at λmax were measured over time. The results are illustrated in FIGS. 5 and 6. As a comparative example, changes with time in the absorbance at λmax of NPL 1 and in an ICG solution are illustrated in FIG. 5.
Changes in the absorbance of the aqueous dispersions of PNP4 to PNP6 at λmax were measured over time in the same manner as in Example 9. The results are illustrated in FIGS. 7 and 8. As a comparative example, changes with time in the absorbance at λmax of NPL 1 and in an ICG solution are illustrated in FIG. 7.
The PNP10 prepared in Example 13 was diluted with water, and the absorbance was measured over time with an absorption spectrometer (Perkin Elmer). The dispersion was shielded from a light except when measurement was performed and stored at 4° C. The measurement results are illustrated in FIG. 9.

| dissolution of ICG in chloroform [1] | Molecule | ICG dissolved in dichloromethane [2] | absorbance change rate at λmax [3] [%] |
| --- | --- | --- | --- |
| not dissolved | CCCCCCCCCCCCCCCCCC(=O)OCC(COC(=O)CCCCCCCCCCCCCCCCC)OC(=O)CCCCCCCCCCCCCCCCC [tristearin] |  |  |
| not dissolved | CCCCCCCC/C=C\CCCCCCCC(=O)OCC(COC(=O)CCCCCCC/C=C\CCCCCCCC)OC(=O)CCCCCCC/C=C\CCCCCCCC [triolein] |  |  |
| not dissolved | CCCCCCCCCCCCCCCCCC(=O)OCC [ethyl stearate] |  |  |

Second part, the molecule before the results:

| Molecule | dissolution of ICG in chloroform [1] | ICG dissolved in dichloromethane [2] | absorbance change rate at λmax [3] [%] |
| --- | --- | --- | --- |
| indocyanine green [ICG] |  | approximately 0.6 mM | 70 |
| CC(=O)O[C@H]1CC[C@@]2(C)C(=CC[C@H]3[C@@H]4CC[C@H]([C@H](C)CCCC(C)C)[C@@]4(C)CC[C@@H]32)C1 [cholesterol acetate] | not dissolved |  |  |
